Measurements taken from US6525001B1, “Substituted pyrimidine and pyridine herbicides” (Mid-American Commercialization Corporation, priority 1997, dated 2003).

How the values were obtained:
Format in all cases: in vivo
[1] = system: bedstraw (Galium aparine); assay: Test B pre-/postemergence; set-up: key: 0 is no effect; 10 is complete control; conditions: for Bedstraw plant response rating: Preemergence
Summary of the method: (§1)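 Compounds in a surfactant-containing, non-phytotoxic solvent blend are applied to freshly planted seed (preemergence) and, concurrently, to seedlings of 2 to 18 cm at 1–4 leaves (postemergence). Plants stay in the greenhouse twelve to sixteen days and are then scored visually from 0 (no effect) to 10 (complete control).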

[2] = system: blackgrass (Alopecurus myosuroides); assay: Test B pre-/postemergence; set-up: key: 0 is no effect; 10 is complete control; conditions: for Blackgrass plant response rating: Preemergence
Summary of the method: as §1

[3] = system: broadleaf signalgrass (Brachiaria decumbens); assay: Test B pre-/postemergence; set-up: key: 0 is no effect; 10 is complete control; conditions: for B. signalgrass plant response rating: Preemergence
Summary of the method: as §1

[4] = system: cocklebur (Xanthium strumarium); assay: Test B pre-/postemergence; set-up: key: 0 is no effect; 10 is complete control; conditions: for Cocklebur plant response rating: Preemergence
Summary of the method: as §1

corn (Zea mays) = assay: Test B pre-/postemergence; set-up: key: 0 is no effect; 10 is complete control; conditions: for Corn plant response rating: Preemergence
Summary of the method: as §1

[5] = system: crabgrass (Digitaria sanguinalis); assay: Test B pre-/postemergence; set-up: key: 0 is no effect; 10 is complete control; conditions: for Crabgrass plant response rating: Preemergence
Summary of the method: as §1

[6] = system: giant foxtail (Setaria faberii); assay: Test B pre-/postemergence; set-up: key: 0 is no effect; 10 is complete control
Summary of the method: as §1

[7] = system: momingglory (Ipomoea hederacea); assay: Test B pre-/postemergence; set-up: key: 0 is no effect; 10 is complete control
Summary of the method: as §1

[8] = system: pigweed (Amaranthus retroflexus); assay: Test B pre-/postemergence; set-up: key: 0 is no effect; 10 is complete control
Summary of the method: as §1

[9] = system: purple nutsedge (Cyperus rotundus); assay: Test B pre-/postemergence; set-up: key: 0 is no effect; 10 is complete control
Summary of the method: as §1

rape (Brassica napus) = assay: Test B pre-/postemergence; set-up: key: 0 is no effect; 10 is complete control
Summary of the method: as §1

soybean (Glycine max) = assay: Test B pre-/postemergence; set-up: key: 0 is no effect; 10 is complete control
Summary of the method: as §1

[10] = system: sugar beet (Beta vulgaris); assay: Test B pre-/postemergence; set-up: key: 0 is no effect; 10 is complete control
Summary of the method: as §1

[11] = system: velvetleaf (Abutilon theophrasti); assay: Test B pre-/postemergence; set-up: key: 0 is no effect; 10 is complete control
Summary of the method: as §1

[12] = system: wheat (Triticum aestivum); assay: Test B pre-/postemergence; set-up: key: 0 is no effect; 10 is complete control
Summary of the method: as §1

wild oat (Avena fatua) = assay: Test B pre-/postemergence; set-up: key: 0 is no effect; 10 is complete control
Summary of the method: as §1

[13] = system: bamyardgrass (Echinochloa crus-galli); assay: Test B flood test
Summary of the method: (§2)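 Read-out is a visual response score from 0 (no effect) to 10 (complete control), assigned by comparison with untreated controls. Treatment was applied at the 2-leaf stage, and plants stayed in the greenhouse for twelve to sixteen days before scoring.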

[14] = system: duck salad (Heteranthera limosa); assay: Test B flood test
Summary of the method: as §2

rice (Oryza sativa) = assay: Test B flood test
Summary of the method: as §2

[15] = system: smallflower flatsedge (Cyperus difformis); assay: Test B flood test
Summary of the method: as §2

[16] = Rate 250 g/ha, Postemergence (so in the source)
[17] = Rate 62 g/ha, Postemergence (flood test)
[18] = Rate 125 g/ha, Postemergence, flood test
[19] = Rate 250 g/ha, Postemergence (flood test species)
[20] = Rate 500 g/ha, Postemergence (flood test species)
[21] = Rate 125 g/ha, Postemergence section (flood test species)

Cc1cnc(-c2ccc(C(F)(F)F)cc2)nc1Cc1cccc(C#N)c1 [Compound 32]
Plant response rating, Bedstraw ([1]; Rate 62 g/ha, Postemergence): 6 | Bedstraw plant response rating ([1]; Rate 62 g/ha): 3 | Plant response rating, Bedstraw ([1]; Rate 125 g/ha, Postemergence): 6 | Bedstraw plant response rating ([1]; Rate 125 g/ha): 8 | Plant response rating, Bedstraw ([1]; Rate 250 g/ha, Postemergence): 10 | Plant response rating, Bedstraw [1, 16]: 10 | Plant response rating, Blackgrass ([2]; Rate 62 g/ha, Postemergence): 1 | Blackgrass plant response rating ([2]; Rate 62 g/ha): 1 | Plant response rating, Blackgrass ([2]; Rate 125 g/ha, Postemergence): 2 | Blackgrass plant response rating ([2]; Rate 125 g/ha): 2 | Plant response rating, Blackgrass ([2]; Rate 250 g/ha, Postemergence): 5 | Plant response rating, Blackgrass [2, 16]: 4 | Plant response rating, B. signalgrass ([3]; Rate 62 g/ha, Postemergence): 1 | B. signalgrass plant response rating ([3]; Rate 62 g/ha): 2 | Plant response rating, B. signalgrass ([3]; Rate 125 g/ha, Postemergence): 2 | B. signalgrass plant response rating ([3]; Rate 125 g/ha): 6 | Plant response rating, B. signalgrass ([3]; Rate 250 g/ha, Postemergence): 2 | Plant response rating, B. signalgrass ([3]; Rate 250 g/ha, Postemergence as printed in head r139 (second section for compounds 26-50)): 7 | Plant response rating, Cocklebur ([4]; Rate 62 g/ha, Postemergence): 8 | Cocklebur plant response rating ([4]; Rate 62 g/ha): 0 | Plant response rating, Cocklebur ([4]; Rate 125 g/ha, Postemergence): 8 | Cocklebur plant response rating ([4]; Rate 125 g/ha): 0 | Plant response rating, Cocklebur ([4]; Rate 250 g/ha, Postemergence): 9 | Plant response rating, Cocklebur [4, 16]: 0 | Plant response rating, Corn (corn (Zea mays); Rate 62 g/ha, Postemergence): 1 | Corn plant response rating (corn (Zea mays); Rate 62 g/ha): 0 | Plant response rating, Corn (corn (Zea mays); Rate 125 g/ha, Postemergence): 1 | Corn plant response rating (corn (Zea mays); Rate 125 g/ha): 0 | Plant response rating, Corn (corn (Zea mays); Rate 250 g/ha, Postemergence): 1 | Plant response rating, Corn (corn (Zea mays); [16]): 0 | Plant response rating, Crabgrass ([5]; Rate 62 g/ha, Postemergence): 1 | Crabgrass plant response rating ([5]; Rate 62 g/ha): 1 | Plant response rating, Crabgrass ([5]; Rate 125 g/ha, Postemergence): 2 | Crabgrass plant response rating ([5]; Rate 125 g/ha): 1 | Plant response rating, Crabgrass ([5]; Rate 250 g/ha, Postemergence): 2 | Plant response rating, Crabgrass [5, 16]: 3 | Plant response rating, Giant foxtail ([6]; Rate 62 g/ha, Postemergence): 1 | Giant foxtail plant response rating ([6]; Rate 62 g/ha, Preemergence): 1 | Giant foxtail plant response rating ([6]; Rate 125 g/ha, Postemergence): 1 | Giant foxtail plant response rating ([6]; Rate 125 g/ha, Preemergence): 2 | Plant response rating, Giant foxtail ([6]; Rate 250 g/ha, Postemergence): 2 | Plant response rating, Giant foxtail [6, 16]: 5 | Plant response rating, Morningglory ([7]; Rate 62 g/ha, Postemergence): 7 | Morningglory plant response rating ([7]; Rate 62 g/ha, Preemergence): 1 | Morningglory plant response rating ([7]; Rate 125 g/ha, Postemergence): 8 | Morningglory plant response rating ([7]; Rate 125 g/ha, Preemergence): 2 | Plant response rating, Morningglory ([7]; Rate 250 g/ha, Postemergence): 10 | Plant response rating, Morningglory [7, 16]: 3 | Plant response rating, Redroot pigweed ([8]; Rate 62 g/ha, Postemergence): 6 | Redroot pigweed plant response rating ([8]; Rate 62 g/ha, Preemergence): 8 | Redroot pigweed plant response rating ([8]; Rate 125 g/ha, Postemergence): 9 | Redroot pigweed plant response rating ([8]; Rate 125 g/ha, Preemergence): 10 | Plant response rating, Redroot pigweed ([8]; Rate 250 g/ha, Postemergence): 9 | Plant response rating, Redroot pigweed [8, 16]: 10 | Plant response rating, Nutsedge ([9]; Rate 62 g/ha, Postemergence): 0 | Nutsedge plant response rating ([9]; Rate 62 g/ha, Preemergence): 0 | Nutsedge plant response rating ([9]; Rate 125 g/ha, Postemergence): 0 | Nutsedge plant response rating ([9]; Rate 125 g/ha, Preemergence): 0 | Plant response rating, Nutsedge ([9]; Rate 250 g/ha, Postemergence): 1 | Plant response rating, Nutsedge [9, 16]: 0 | Plant response rating, Rape (rape (Brassica napus); Rate 62 g/ha, Postemergence): 8 | Rape plant response rating (rape (Brassica napus); Rate 62 g/ha, Preemergence): 2 | Rape plant response rating (rape (Brassica napus); Rate 125 g/ha, Postemergence): 8 | Rape plant response rating (rape (Brassica napus); Rate 125 g/ha, Preemergence): 10 | Plant response rating, Rape (rape (Brassica napus); Rate 250 g/ha, Postemergence): 8 | Plant response rating, Rape (rape (Brassica napus); [16]): 10 | Plant response rating, Soybean (soybean (Glycine max); Rate 62 g/ha, Postemergence): 4 | Soybean plant response rating (soybean (Glycine max); Rate 62 g/ha, Preemergence): 0 | Soybean plant response rating (soybean (Glycine max); Rate 125 g/ha, Postemergence): 5 | Plant response rating, Soybean (soybean (Glycine max); Rate 125 g/ha, Preemergence): 0 | Plant response rating, Soybean (soybean (Glycine max); Rate 250 g/ha, Postemergence): 6 | Plant response rating, Soybean (soybean (Glycine max); [16]): 1 | Plant response rating, Sugarbeets ([10]; Rate 62 g/ha, Postemergence): 9 | Sugarbeets plant response rating ([10]; Rate 62 g/ha, Preemergence): 8 | Sugarbeets plant response rating ([10]; Rate 125 g/ha, Postemergence): 10 | Plant response rating, Sugarbeets ([10]; Rate 125 g/ha, Preemergence): 10 | Plant response rating, Sugarbeets ([10]; Rate 250 g/ha, Postemergence): 10 | Plant response rating, Sugarbeets [10, 16]: 10 | Plant response rating, Velvetleaf ([11]; Rate 62 g/ha, Postemergence): 4 | Velvetleaf plant response rating ([11]; Rate 62 g/ha, Preemergence): 6 | Velvetleaf plant response rating ([11]; Rate 125 g/ha, Postemergence): 8 | Plant response rating, Velvetleaf ([11]; Rate 125 g/ha, Preemergence): 9 | Plant response rating, Velvetleaf ([11]; Rate 250 g/ha, Postemergence): 9 | Plant response rating, Velvetleaf [11, 16]: 10 | Wheat plant response rating ([12]; Rate 62 g/ha, Postemergence): 1 | Wheat plant response rating ([12]; Rate 62 g/ha, Preemergence): 0 | Wheat plant response rating ([12]; Rate 125 g/ha, Postemergence): 2 | Plant response rating, Wheat ([12]; Rate 125 g/ha, Preemergence): 0 | Plant response rating, Wheat ([12]; Rate 250 g/ha, Postemergence): 2 | Plant response rating, Wheat [12, 16]: 0 | Wild oats plant response rating (wild oat (Avena fatua); Rate 62 g/ha, Postemergence): 1 | Wild oats plant response rating (wild oat (Avena fatua); Rate 62 g/ha, Preemergence): 2 | Wild oats plant response rating (wild oat (Avena fatua); Rate 125 g/ha, Postemergence): 3 | Plant response rating, Wild oats (wild oat (Avena fatua); Rate 125 g/ha, Preemergence): 3 | Plant response rating, Wild oats (wild oat (Avena fatua); Rate 250 g/ha, Postemergence): 3 | Plant response rating, Wild oats (wild oat (Avena fatua); [16]): 4 | Plant response rating, Barnyardgrass [13, 17]: 2 | Plant response rating, Barnyardgrass [13, 18]: 3 | Plant response rating, Barnyardgrass [13, 19]: 3 | Plant response rating, Barnyardgrass [13, 20]: 4 | Plant response rating, Ducksalad [14, 17]: 2 | Plant response rating, Ducksalad [14, 18]: 3 | Plant response rating, Ducksalad [14, 19]: 4 | Plant response rating, Ducksalad [14, 20]: 6 | Plant response rating, Rice (rice (Oryza sativa); [17]): 1 | Rice plant response rating (rice (Oryza sativa); [21]): 1 | Plant response rating, Rice (rice (Oryza sativa); [19]): 2 | Plant response rating, Rice (rice (Oryza sativa); [20]): 2 | Plant response rating, S. Flatsedge [15, 17]: 2 | S. Flatsedge plant response rating [15, 21]: 5 | Plant response rating, S. Flatsedge [15, 19]: 6 | Plant response rating, S. Flatsedge [15, 20]: 7
